Laboratory results from paper PMC9124818 (Pharmacology Research & Perspectives, 2022).
Like-named read-outs stand apart in the source and are kept apart here.

Columns and labels:
CYP3A4 mRNA = test: in vitro; settings: for EC50 / Basic kinetic model: Emax (fold): ± standard error; for Fold‐change method: Fold change: highest dose tested (40 µM fenfluramine, 50 µM norfenfluramine); for Fold‐change method: % of control: percent of positive control induction of mRNA; for Basic kinetic model: Emax (fold): fit of fold‐change −1 values
Experimental: Cells were then harvested to isolate RNA, which was analyzed by quantitative reverse transcription‐polymerase chain reaction (qRT‐PCR) for induction of CYP1A2, CYP2B6, and CYP3A4 mRNA levels. Total RNA was phase extracted with TRIzol followed by purification with an RNeasy Mini Kit (Qiagen Inc., Germantown, MD). Quantitative PCR was performed in triplicate with a 7900HT Fast Real Time PCR System, an Applied Biosystems Universal Master Mix, and TaqMan® Gene Expression Assays. The quantity of target cDNA relative to control cDNA (GAPDH) was determined by the ΔΔCT method (Applied Biosystems User Bulletin #2). Relative quantitation measures the change in mRNA expression in a test sample relative to that in the control sample (i.e., DMSO). This method assumes that the efficiency of target amplification and the efficiency of endogenous control amplification are approximately equal.
mRNA assessment was conducted using a quantitative reverse transcription-polymerase chain reaction (qRT-PCR) according to the Applied Biosystems protocol. Each PCR was performed in triplicate. A Primer Mix was prepared for each Gene Expression assay. A typical Primer Mix contained TaqMan Fast Advanced Master Mix (1X), Gene Expression Assay (1X, 900 nM forward and reverse primers) and ribonuclease (RNase)-free water. The Reaction Mix was prepared by adding the Primer Mix to cDNA. A percentage of samples (no less than 10%) included NACs. […] The relative quantity of the target cDNA compared with that of the control cDNA (GAPDH) was determined by the ΔΔCt method (Applied Biosystems User Bulletin #2). Relative quantitation measures the change in mRNA expression in a test sample relative to that in a control sample (eg, dimethyl sulfoxide [DMSO]). This method assumes that the efficiency of the target amplification and the efficiency of the endogenous control amplification are approximately equal.
This software analyzes relative gene expression using the comparative Ct method (ΔΔCt), which relates the PCR signal of the target transcript to the PCR signal of the target in an untreated control. Both the treated sample and the untreated control signals are normalized to the endogenous control (GAPDH), for which expression is not affected by treatment and expression is constant throughout the tissue being tested.
The level of mRNA expression relative to the positive control was calculated as follows: […]

[1] = Plasma protein binding, Rapid Equilibrium Device; assay type: in vitro ADME; settings: pooled rat or dog plasma, pH 7.4, range
Experimental: In vitro plasma protein binding was then determined by using the Rapid Equilibrium Device (RED) with a molecular weight cutoff of 8 kDa (Thermo Fisher Scientific, Inc., Waltham, MA). […] The internal standard was niflumic acid. […] Protein binding was determined by adding a 300‐μL aliquot of the test sample or the control sample to the sample chamber of the RED and adding a 500‐μL aliquot of PBS (pH 7.4) to the buffer chamber. The device unit was sealed and incubated at 37°C for 4 h with gentle shaking (~750 rpm). After dialysis, three aliquots of the test samples (50 μL) were collected from both sample and buffer chambers and were mixed with 50 μL of methanol as “donor samples” and “acceptor samples,” respectively. […] A detailed description of the LC‐MS/MS process can be found in the Supplemental Material. Supernatant fractions were analyzed by LC‐MS/MS using an Acquity Ultra Performance Liquid Chromatography system with ethylene bridged hybrid (BEH) C18 columns (2.1 × 50 mm, 1.7 µm; Waters Corporation; Milford, MA) coupled to an API4000 mass spectrometer (AB Sciex). […] Samples were prepared in triplicate and were dialyzed for 4 h. […] Protein binding was calculated as follows: Proteinbindingratio%=100‐Unboundratio%, where Unboundratio%=AcceptorSampleConcentration/DonorSampleConcentration.

OAT3 = target: T1, OAT3 (Homo sapiens, UniProt Q8TCC7); test: Transporter inhibition, uptake of [3H]-estrone-3-sulfate in HEK293 cells; assay type: in vitro ADME
T1 construct: host or cells: HEK293
T1 sequence (Q8TCC7 1-542): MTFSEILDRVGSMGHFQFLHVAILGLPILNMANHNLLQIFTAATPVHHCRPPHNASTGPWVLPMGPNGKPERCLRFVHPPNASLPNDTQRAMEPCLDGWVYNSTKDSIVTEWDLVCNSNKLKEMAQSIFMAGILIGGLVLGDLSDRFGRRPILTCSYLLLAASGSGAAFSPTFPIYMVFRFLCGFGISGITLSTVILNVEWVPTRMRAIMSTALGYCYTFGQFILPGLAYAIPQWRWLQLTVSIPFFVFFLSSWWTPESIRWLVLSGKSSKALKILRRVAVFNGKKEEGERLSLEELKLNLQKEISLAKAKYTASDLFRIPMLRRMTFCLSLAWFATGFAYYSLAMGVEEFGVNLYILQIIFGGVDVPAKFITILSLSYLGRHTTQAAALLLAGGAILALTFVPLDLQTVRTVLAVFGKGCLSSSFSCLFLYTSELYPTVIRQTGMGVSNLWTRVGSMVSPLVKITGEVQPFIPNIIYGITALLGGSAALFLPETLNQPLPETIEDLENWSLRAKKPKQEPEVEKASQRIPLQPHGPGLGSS
Experimental: The test compound (FFA or nFFA) or the positive control substrate ([…], respectively) was added to the donor chamber. […] Cells were then washed, lysed with scintillation cocktail, and analyzed for the probe substrate with a MicroBeta scintillation counter (PerkinElmer, Hopkinton, MA). Transcellular transporter assay conditions are described in Supplemental Table 1. Calculation of IC50 values was based on bidirectional permeability of probe substrate with and without the inhibitor in MDCKII cells expressing BCRP and in Caco‐2 cells expressing P‐gp, and transporter‐dependent uptake of probe substrate in HEK293 cells expressing all other transporters (Supplemental Table 1).
The transporter-specific uptake of the probe substrate in cells was determined by subtracting the accumulation in the control cells from the accumulation in the transporter-expressing cells.

SMILES: CCNC(C)Cc1cccc(C(F)(F)F)c1 (racemic) [FFA, (RS)‐ethyl(α‐methyl‐3‐trifluoromethylphenethyl)amine, reference compound]
- Static mechanistic model: Potential to induce (CYP3A4 mRNA): No (key: Yes: AUCR <0.8 to denote induction; No: AUCR <0.8 to denote induction)
- EC50 (CYP3A4 mRNA; human, Basic kinetic model: EC50, hepatocytes HC7‐8): 8.53 ± 4.3 µM
- EC50 (CYP3A4 mRNA; human, Basic kinetic model: EC50, hepatocytes HC10‐8): 20.4 ± 1.9 µM
- EC50 (CYP3A4 mRNA; human, Basic kinetic model: EC50, hepatocytes HC10‐10): 9.05 ± 3.6 µM
- CYP3A4 induction (abstract) (CYP3A4 mRNA; human, hepatocytes): 1.9-3.0 fold
- fraction unbound at 4 h [1]: 0.378 to 0.538
- IC50 (OAT3): > 30 µM

SMILES: CC(N)Cc1cccc(C(F)(F)F)c1.Cl (centres unmarked) [nFFA, [1‐(3‐trifluoromethyl)phenyl]propan‐2‐amine hydrochloride]
- Basic kinetic model: Potential to induce (CYP3A4 mRNA; hepatocytes HC7‐8): Yes
- Basic kinetic model: R3 (CYP3A4 mRNA; hepatocytes HC7‐8): 0.79
- Fold‐change method: Potential to induce (CYP3A4 mRNA; hepatocytes HC7‐8): Yes
- Static mechanistic model: Potential to induce (CYP3A4 mRNA; hepatocytes HC7‐8): No (AUCR <0.8 to denote induction)
- Fold‐change method: Fold change (CYP3A4 mRNA; hepatocytes HC7‐8): 4.91 fold
- Fold‐change method: % of control (CYP3A4 mRNA; hepatocytes HC7‐8): 3.68%
- Basic kinetic model: Emax (fold) (CYP3A4 mRNA; hepatocytes HC7‐8): 3.92 ± 0.048 fold
- Basic kinetic model: Potential to induce (CYP3A4 mRNA; hepatocytes HC10‐8): No
- Basic kinetic model: R3 (CYP3A4 mRNA; hepatocytes HC10‐8): 0.86
- Fold‐change method: Potential to induce (CYP3A4 mRNA; hepatocytes HC10‐8): Yes
- Static mechanistic model: Potential to induce (CYP3A4 mRNA; hepatocytes HC10‐8): No (AUCR <0.8 to denote induction)
- Fold‐change method: Fold change (CYP3A4 mRNA; hepatocytes HC10‐8): 5.75 fold
- Fold‐change method: % of control (CYP3A4 mRNA; hepatocytes HC10‐8): 15.30%
- Basic kinetic model: Emax (fold) (CYP3A4 mRNA; hepatocytes HC10‐8): 6.95 ± 1.0 fold
- Basic kinetic model: Potential to induce (CYP3A4 mRNA; hepatocytes HC10‐10): No
- Basic kinetic model: R3 (CYP3A4 mRNA; hepatocytes HC10‐10): 0.84
- Fold‐change method: Potential to induce (CYP3A4 mRNA; hepatocytes HC10‐10): Yes
- Static mechanistic model: Potential to induce (CYP3A4 mRNA; hepatocytes HC10‐10): No (AUCR <0.8 to denote induction)
- Fold‐change method: Fold change (CYP3A4 mRNA; hepatocytes HC10‐10): 4.57 fold
- Fold‐change method: % of control (CYP3A4 mRNA; hepatocytes HC10‐10): 4.85%
- Basic kinetic model: Emax (fold) (CYP3A4 mRNA; hepatocytes HC10‐10): 3.61 ± 0.40 fold
- EC50 (CYP3A4 mRNA; read-out: Basic kinetic model: EC50, hepatocytes HC7‐8): 12.9 ± 0.38 µM
- EC50 (CYP3A4 mRNA; read-out: Basic kinetic model: EC50, hepatocytes HC10‐8): 37.8 ± 5.6 µM
- EC50 (CYP3A4 mRNA; read-out: Basic kinetic model: EC50, hepatocytes HC10‐10): 17.1 ± 3.9 µM
- IC50 (OAT3; HEK293, probe [3H]-estrone-3-sulfate 50 nM, read-out: IC50): > 50 µM
